Laboratory results reported in patent US20130041036A1, “FERULIC ACID AS FEED SUPPLEMENT IN BEEF CATTLE TO PROMOTE ANIMAL GROWTH AND IMPROVE THE MEAT QUALITY OF THE CARCASS AND THE MEAT” (BIOKAB, S.A. DE C.V., priority 2011, published 2013).
“Also recorded” adds a separate entry of the source. Marks after values point to notes of the source that are not given here.

Experiments:
[1] = system: beef cattle; assay: Feedlot performance and carcass quality of beef cattle; type: in vivo, beef cattle of commercial breeds; details: for CCW: cold carcass weight: carcass 24 hr at 0° C.; for PH45: pH at 45 min postmortem: Longissimus dorsi
Description: In this study, all animals received the same prophylactic management, and all were subsequently assigned randomly to one of the following four treatments (25 animals per treatment, divided into pens of 5 experimental units per pen):
Definition of the 4 Treatments
Treatment 1 (Control): control animals (receiving only the basal diet without supplementation of the additive).
Treatment 2 (Ferulic Acid for 30 days=FA30): Animals receiving the basal diet supplemented with 240 ppm of ferulic acid during the last 30 days of the fattening period.
Treatment 3 (Ferulic Acid for 60 days=FA60): Animals receiving the basal diet supplemented with 240 ppm of ferulic acid during the last 60 days of the fattening period.
Treatment 4 (Zilmax commercial Zilpaterp; =ZX): Animals receiving the basal diet and supplemented with 6 ppm hydrochloride zilpaterol during the last 30 days of the fattening period.
During the experimental phase, all animals received a feeding ration consisting of 20% fodder and 80% concentrate. The crop was corn stover, while the concentrate consisted of different proportions of rolled corn grain, soybean meal, canola meal, distillery grains, and molasses. The ration was provided twice a day, and there was free access to the food and drinking water.
Initial and final live weight was recorded in the productive performance trial. The performance test lasted 60 days. Daily feed intake was evaluated, weight was recorded at the beginning and end of experimental period, in order to estimate the average daily gain and feed conversion.
Before concluding the performance test, 2 animals were randomly selected per pen (10 per treatment) for humanitarian slaughter. The animals were sacrificed following the standard procedures of the official Mexican standards in the municipal slaughterhouse of Guadalajara, Jalisco. Animal live weight was recorded before slaughter.
During the slaughter process, the pH of the carcass at 45 min postmortem in the Longissimus dorsi muscle (LD) was measured and the weight of the hot carcass was recorded. The carcasses were refrigerated at 0° C. for 24 hr. After this, the final pH was measured and cold carcass weight recorded, and the classification of carcasses was carried out, recording the Rib eye area (REA) in square inches, back fat thickness (BFT) in mm, and the marbling in the 12th intercostal space of the LD; the skeletal maturity and conformation of the carcass was also evaluated (10 carcasses per treatment). The assessment of quality of the carcass was made following the procedures described by the US Department of Agriculture (USDA, 2000).
(§1) All data for response variables of the quality of carcass and meat were analyzed under a completely randomized design, with a one-way ANOVA, taking the experimental treatments as a fixed effect. For carcass BFT and REA characteristics the hot carcass weight was used as a covariable. Regarding the sensory attributes, the model also included the effect of panelist as the repeated measure. The variables of the shelf life study were analyzed as a completely randomized design with factorial arrangement, factor A being the treatment with 4 levels, and factor B, the storage time with 5 levels. When there were statistical differences (P<0.05) between treatments, average comparisons were performed by the multiple range test of Tukey. All data was processed in the NCSS statistical package (NCSS, 2001).

[2] = system: Longissimus dorsi muscle; assay: Chemical and physicochemical quality of Longissimus dorsi muscle from supplemented cattle; type: in vivo, beef cattle of commercial breeds; details: for SF: shear force: Warner-Bratzler; for L* value: fresh meat brightness; for a* value: fresh meat redness; for b* value: fresh meat yellowness; for pH: meat
Procedure: (§2) Subsequent to the carcass classification the rib eye cut (LD muscle) was obtained of the left side of each selected carcass. Meat samples were identified, vacuum packed, frozen at -18° C., and then shipped under refrigeration by air courier to the Centro de Investigación en Alimentacion y Desarrollo A.C. (CIAD) facilities at Hermosillo, Sonora, to perform quality analysis of the meat: Chemical analysis (moisture and fat content), physicochemical (objective color parameters L*, which measures the brightness of the meat, a* value, which measures the redness, and b* value which measures the tendency towards yellowness, and hue-angle, Warner-Bratzler shear force, water retention capacity and pH). A sensory test was done by a trained panel consisting of 10 members using a descriptive test with a semi-structured 10 cm scale, where zero indicates a […] of the attribute and a 10 indicates a favorable rating (e.g. tenderness, zero indicates extremely hard and 10 extremely tender). The sensory attributes that were measured: total color and overall appearance of raw meat, flavor, odor, color, tenderness, fat perception, juiciness, and perception of connective tissue in cooked meat. […] To measure cooking loss, the meat sample was weighed before and immediately after reaching the final cooking temperature, which was expressed in percentage. All data for response variables of the quality of carcass and meat were analyzed under a completely randomized design, with a one-way ANOVA, taking the experimental treatments as a fixed effect. For carcass BFT and REA characteristics the hot carcass weight was used as a covariable. Regarding the sensory attributes, the model also included the effect of panelist as the repeated measure. The variables of the shelf life study were analyzed as a completely randomized design with factorial arrangement, factor A being the treatment with 4 levels, and factor B, the storage time with 5 levels. When there were statistical differences (P<0.05) between treatments, average comparisons were performed by the multiple range test of Tukey.

[3] = system: Longissimus dorsi muscle; assay: Sensory test of Longissimus dorsi meat by trained panel; type: in vivo, beef cattle of commercial breeds; details: for Tenderness / Connective tissue perception / Fat perception / Flavor intensity / Juiciness / Odor intensity: cooked meat; for Tenderness: 10 cm scale, zero extremely hard, 10 extremely tender; for Connective tissue perception / Fat perception / Flavor intensity / Juiciness / Odor intensity / Appearance / Overall Color: semi-structured 10 cm scale; for Appearance / Overall Color: raw meat
Procedure: as §2

[4] = system: Longissimus dorsi muscle; assay: Shelf life study of refrigerated meat (colour, TBARS); type: in vivo, beef cattle of commercial breeds; details: for TBA values (lipid oxidation) during shelf life: FIG. 2
Procedure: In order to estimate the antioxidant effect of ferulic acid, 5 chops of the meat samples were taken (5 experimental units) of the respective treatments, which were packed with traditional packaging (film wrapped) and subjected to a refrigeration process from 4 and 5° C. for 10 days in a room equipped for this purpose. During the shelf life (Day 1, 3, 5, 7 and 9 of storage) the objective color parameters mentioned above, as well as determination of substances reactive to thiobarbituric acid (TBARS) were evaluated according to the methodology described by Pfalzgraf et al. (1995). TBA values were expressed as substances reactive to 2-thiobarbituric acid (TBARS) in mg malonaldehyde/kg sample.
as §1

[5] = system: pigs; details: pigs supplemented with 50 ppm of ferulic acid; cited from earlier work
[6] = 240 ppm ferulic acid (FA30) or 6 ppm zilpaterol hydrochloride (ZX) in diet, last 30 days of fattening
[7] = 240 ppm ferulic acid (FA30) or 6 ppm zilpaterol hydrochloride (ZX), last 30 days of fattening
[8] = 240 ppm ferulic acid in diet, last 60 days of fattening (FA60)
[9] = 240 ppm ferulic acid, last 60 days of fattening (FA60)
[10] = 240 ppm ferulic acid, last 60 days (FA60)
[11] = FA30 240 ppm or ZX 6 ppm, last 30 days of fattening
[12] = FA30 240 ppm or ZX 6 ppm, last 30 days of fattening, listed as FA30

For `COc1cc(/C=C/C(=O)O)ccc1O` [ferulic acid, trans-4-hydroxy-3-methoxy cinnamic acid], the “FW: final weight” value [1, 6] was 553.5 kg, the “HCW: hot carcass weight” value [1, 6] was 336.42 kg and the “CCW: cold carcass weight” value [1, 6] was 331.13 kg. For the same molecule, the “BFT: back fat thickness” value [1, 7] was 4.29 mm, the “PH24: pH at 24 h postmortem” value [1, 7] was 5.63 and the “REA: rib eye area” value [1, 7] was 14.54 Inch^2. For the same molecule, the “CY: carcass yield” value [1, 8] was 59.85^ab %, the “FW: final weight” value [1, 8] was 551.9 kg and the “HCW: hot carcass weight” value [1, 8] was 330.42 kg. For the same molecule, the “CCW: cold carcass weight” value [1, 8] was 325.42 kg, the “BFT: back fat thickness” value [1, 9] was 4.38 mm and the “PH24: pH at 24 h postmortem” value [1, 9] was 5.61. The “REA: rib eye area” value [1, 9] was 14.21 Inch^2, the “PH45: pH at 45 min postmortem” value [1, 7] was 6.54^b and the “PH45: pH at 45 min postmortem” value [1, 9] was 6.33^ab. The Cooking loss [2, 7] was 17.65^ab %, the Fat content [2, 7] was 2.13% and the Hue angle [2, 7] was 36.79. The Moisture [2, 7] was 73.10%, the “WHC: water holding capacity” value [2, 7] was 25.73% and the Cooking loss [2, 9] was 19.65^b %. For the same molecule, the Fat content [2, 9] was 2.52%, the Hue angle [2, 9] was 37.13 and the Moisture [2, 9] was 73.41%. For the same molecule, the “WHC: water holding capacity” value [2, 9] was 25.44%, the “SF: shear force” value [2, 7] was “values significantly lower” and the “SF: shear force” value ([2]; 240 ppm ferulic acid (FA30) or 6 ppm zilpaterol hydrochloride (ZX), last 30 days of fattening, listed as FA30) was 7.94^a kg F. The “SF: shear force” value [2, 9] was 8.32^ab kg F, the “L* value” [2, 7] was 36.66 and the “L* value” [2, 9] was 35.74. For the same molecule, the “a* value” [2, 7] was 16.86, the “a* value” [2, 9] was 17.55 and the “b* value” [2, 7] was 12.53. The “b* value” [2, 9] was 13.22, the pH [2, 7] was 5.54 and the pH [2, 9] was 5.57. The Tenderness [3, 10] was 7.54^ab, the Tenderness [3, 11] was “more tender” and the Tenderness [3, 12] was 7.68^b. For the same molecule, the Connective tissue perception [3, 10] was 1.50, the Fat perception [3, 10] was 3.62 and the Flavor intensity [3, 10] was 7.32^ab. For the same molecule, the Juiciness [3, 10] was 6.76^ab, the Odor intensity [3, 10] was 7.90 and the Connective tissue perception [3, 11] was 1.57. For the same molecule, the Fat perception [3, 11] was 3.22, the Flavor intensity [3, 11] was “better flavored” and the Juiciness [3, 11] was “juicier”. For the same molecule, the Odor intensity [3, 11] was 8.05, the Flavor intensity [3, 12] was 7.73^b and the Juiciness [3, 12] was 7.09^b. The Appearance [3, 10] was 7.11, the “Overall Color” value [3, 10] was 7.65 and the Appearance [3, 11] was 7.41. For the same molecule, the “Overall Color” value [3, 11] was 7.51, the “color parameter a* (redness) during shelf life” value ([4]; film wrapped meat at 4 and 5° C., days 1-9, 240 ppm ferulic acid last 30 days of fattening, FIG. 1, listed as FA30) was “delayed effect of the deterioration of the red color of the meat; also recorded: maintained the highest values of a* until day 7 of storage” and the “TBA values (lipid oxidation) during shelf life” value ([4]; film wrapped meat at 4 and 5° C., days 1-9, 240 ppm ferulic acid last 30 days of fattening) was “lower; also recorded: smaller increases in TBA values”. For the same molecule, the “TBA values (lipid oxidation) during shelf life” value ([4]; film wrapped meat at 4 and 5° C., days 1-9, 240 ppm ferulic acid last 60 days of fattening) was “faster oxidation”, the “photographic pattern of changes of meat color during shelf life” value ([4]; refrigerated storage, 240 ppm ferulic acid last 30 days of fattening, FIG. 3) was “maintain the red meat color with less changes until day 7 of storage” and the “thickness of the dorsal fat” value [5] was “decrease in the thickness of the dorsal fat”.
